Patent US4791215A, “Derivatives of glutamic acid and aspartic acid” (priority 1984, dated 1988)
“And” between values parts separate entries of the source, which are not always exact repeats. Equal values may be shown once.

Assays:
[1] = tested on: CCK-8 induced contraction of rabbit colon; assay: Anti-spastic activity in the colon stimulated by CCK-8; assay type: in vivo
Procedure: A much more specific anti-spastic activity, that is adhering much more to a physiological situation, is illustrated by the following experiment.
The abdomen of an anaesthetised rabbit was cut open to show the transverse colon. A small balloon full of water was inserted at the point established and connected to a pressure transducer by means of a polythene cannula filled with water.
The optimum sensitivity was fixed in relation to the physiological conditions and the products were administered through the femoral vein. Contractions were induced by the administration of 100 ng/kg of CCK.

[2] = tested on: CCK-8 induced contraction of guinea pig gall bladder; assay: Anti-CCK-8 activity on gall bladders in situ; assay type: in vivo; details: for percentage inhibition of contracting effect of CCK-8: single experiments; for ED50: Cavia porcellus, iv, CCK-8 10 ng/kg i.v., read-out: ED50 (inhibition of 50% of contracting effect of CCK-8)
Procedure: In order to confirm the evidence of the studies in vitro several of the more interesting compounds were tested in vivo on guinea pig gall baldders in situ.
The method used is that described by Ljungberg (Svensk. Farm. Tidskr. 68, 351-354, 1964).
Guinea pigs having a weight of about 400 g, anaesthetised with urethane, were used; the substances under examination were administered intraveneously into the jugular vein.
The responses of the gall bladders to the substances under test were detected by means of a force transducer and recorded by means of a microdynamometer. The optimum contracting dose was chosen as 10 ng/kg of CCK-8. The antagonist compounds tested were administered in increasing doses so as to enable the calculation of an ED50 value, that is in the dose (in mg/kg i.v.) capable of inhibiting 50% of the contracting effect of 10 ng/kg i.v. of CCK-8.
The results obtained are given in Table 7 below, which gives the doses used and the effects obtained expressed as a percentage inhibition of the contracting effect of CCK-8 as well as the ED50 found.

biliary flow = assay: Biliary flow (choleretic activity); assay type: in vivo, rat; details: for ED50: Rattus norvegicus, iv, average over 2 hours, read-out: ED50 (dose causing 50% increase in biliary flow)
Procedure: The following experiment was carried out: a cannula was inserted in the bile duct of a rat anaesthetised with urethane, together with a small needle connected to a polythene tube, and the bile liquid was thus collected. The collection was carried out for one hour before the intravenous administration of the tested compounds and for a further two hours after administration, the samples collected at 30 minute intervals being weighed.
In order to prevent possible dehydration of the animals, 0.5 ml of physiological solution was administered at 30 minute intervals up to a total of 3 ml.

[3] = tested on: intestinal transit of carbon; assay: Anti-spastic activity, vegetable carbon intestinal transit test; assay type: in vivo, mice; details: Mus musculus, ip; read-out: antispastic activity ED50 (dose reducing intestinal transit of carbon by 50%)
Description: The anti-spastic activity which the present compounds exert on the entire digestive system is also notable. Measured in mice with the vegetable carbon test (rate of transit through the stomach and the intestine), this activity is illustrated in the following table.
claimed administered intraperitoneally in mice. Values
expressed as the ED 50 in mg/kg, that is the dose which
reduces the intestinal transit of carbon by 50%

morphine analgesia = assay: Increase in analgesia of morphine, Tail Flick Test (Experiment 1); assay type: in vivo, rats; details: for percentage variation of latency of pain sensation / M (10-90) ± SE, mean percentage variation of latency: compound 10 mg/kg i.p. + morphine 2 mg/kg; for M (10-90) ± SE, mean percentage variation of latency: mean 10-90 min; for Power ratio with respect to morphine alone: rat, in vivo
Summary of the method: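 Non-fasted male rats (150-200 g); a tail point is exposed to a 75 °C heat source and latency to tail movement recorded, 8 s cut-off. Readings taken before and 10, 20, 30, 45, 60 and 90 min after analgesic treatment; percentage variation calculated per animal.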

[4] = tested on: CCK-8 induced contraction of guinea pig gall bladder; assay: Anti-CCK activity on gall bladder strips in vitro; details: CCK-8 10 ng/ml
Summary of the method: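 Longitudinal guinea pig gall bladder strips in Krebs at 32 °C, gassed with O2/CO2 95:5, were contracted with 10 ng/ml CCK-8. Isometric force was recorded across several compound concentrations, and ED50 was taken as the μg/ml concentration antagonising 50% of the CCK contraction.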

normal pancreatic cells = assay: Trophic action of CCK-8 on normal pancreas; assay type: in vivo, hamsters; details: CCK-8 10 mcg/kg 3 times per day
Description: (§1) The anti-cholecystokinin effect of the most powerful of the compounds which are the subject of the present invention, that is the compound C-7, on the trophic activity of CCK on normal pancreatic cells and on those of a pancreatic adenocarcinoma is to be studied.
(§2) Male hamsters were inoculated in the cheek pouches with a suspension of 1×10^5 tumoral cells of a pancreatic adenocarcinoma. Five days after the inoculation the animals were divided at random into 4 groups of 10 animals each, that is, a control group, a group of animals treated with 10 μg/kg of CCK-8 three times a day, a group of animals treated with 5 mg/kg i.p. of compound C-7 three times a day, and a fourth group treated simultaneously with the compound C-7 and CCK-8 in the manner described above.
(§3) After 15 days of this treatment, the animals were killed, and the normal pancreas and the inoculated pancreatic tumours in the cheek pouches were collected and weighed. The DNA was extracted and measured according to conventional techniques.
(§4) The results thus obtained are given in Table 13, expressed as mean values (±S.E.)

[5] = tested on: pancreatic adenocarcinoma; assay type: in vivo, hamsters
Description: as §1, §2, §3, §4

[6] = CCK-8 10 mcg/kg 3 times per day

Molecule | percentage inhibition of contracting effect of CCK-8 ([2]; 0.03 mg/kg i.v.) | percentage inhibition of contracting effect of CCK-8 ([2]; 1 mg/kg i.v.) | ED50 [2] [mg/kg] | ED50 (biliary flow) [mg/kg] | ED50 [3] [mg/kg] | percentage variation of latency of pain sensation (morphine analgesia; 10') [%] | percentage variation of latency of pain sensation (morphine analgesia; 20') [%] | percentage variation of latency of pain sensation (morphine analgesia; 30') [%] | percentage variation of latency of pain sensation (morphine analgesia; 45') [%] | percentage variation of latency of pain sensation (morphine analgesia; 60') [%] | percentage variation of latency of pain sensation (morphine analgesia; 90') [%] | M (10-90) ± SE, mean percentage variation of latency (morphine analgesia) [%] | Power ratio with respect to morphine alone (morphine analgesia) | ED50 (concentration antagonising 50% of contracting effect of CCK-8) [4] [µg/mL] | further results
CCCCN(CCCC)C(=O)C(CCC(=O)O)NC(=O)c1ccc(Cl)c(Cl)c1 (racemic) [Compound C-6, D,L-4-(3,4-dichloro-benzoyl-amino)-5-(di-n-butylamino)-5-oxo-pentanoic acid] | -49.7% and -40.0% | -100.0% | 0.05 | 4.2 | 29.5 | 89.2 | 91.3 ± 8.7 | 83.6 ± 10.0 | 82.1 ± 16.6 | 79.8 ± 17.0 | 38.2 | 77.4 ± 19.6 | 2.59 | 0.33 | effect on CCK-8 stimulated colon ([1]; 0.1 mg/kg iv, single experiments): 0; ED50 ([1]; Oryctolagus cuniculus, iv, CCK 100 ng/kg): 1.53 mg/kg; percentage inhibition of contracting effect of CCK-8 ([2]; 0.01 mg/kg i.v.): -12.9%; block of gall bladder contractions induced by CCK-8 ([2]; 0.1 mg/kg): can block gall bladder contractions induced by CCK-8; % increase in biliary flow with respect to controls (biliary flow; 3 mg/kg i.v.): +40.4%; % increase in biliary flow with respect to controls (biliary flow; 10 mg/kg i.v.): +69.8%; % increase in biliary flow with respect to controls (biliary flow; 30 mg/kg i.v.): +88.7%
CCCCCN(CCCCC)C(=O)C(CCC(=O)O)NC(=O)c1ccc(Cl)cc1 (stereo not shown) [Compound C-4] | -11.8% | -92.1% and -88.5% | 0.3 | – | 38.8 | 44.6 ± 5.3 | 67.5 ± 13.4 | 66.3 ± 14.0 | 60.4 ± 16.3 | 59.8 ± 17.0 | 44.2 ± 14.8 | 57.1 | 1.92 | 1.1 | –
CCCc1ccc(C(=O)NC(CCC(=O)O)C(=O)N(CCC)CCC)cc1 (stereo not shown) [Compound C-35] | – | – | – | 29.5 | 181 | 39.9 ± 15 | 62.3 ± 23 | 13.7 | 63.2 ± 17 | 61.3 ± 20 | 28.8 ± 31 | 44.9 ± 21 | 1.51 | 367.1 | % increase in biliary flow with respect to controls (biliary flow; 12.5 mg/kg i.v.): +9.6%; % increase in biliary flow with respect to controls (biliary flow; 25 mg/kg i.v.): +51.9%; % increase in biliary flow with respect to controls (biliary flow; 50 mg/kg i.v.): +91.9%; % increase in biliary flow with respect to controls (biliary flow; 100 mg/kg i.v.): +159.7%
CCK-8: the biologically active component of the cholecystokinin hormone [reference compound] | – | – | – | – | – | – | – | – | – | – | – | – | – | – | Pancreas weight (normal pancreatic cells): 600 ± 54.1 mg; Pancreatic DNA (normal pancreatic cells): 1.5 ± 0.11 mg; TUMORAL DNA [5, 6]: 0.7 ± 0.13 mg; Weight of Pancreatic Carcinoma [5, 6]: 180 ± 15.2 mg; animals died during the treatment ([5]; CCK-8 10 mcg/kg 3 times per day, of 10): 2 animals; effect on growth of pancreatic adenocarcinoma / CCK-8 actions ([5]; hamster, in vivo): stimulates the growth of a pancreatic adenocarcinoma
